Results: patent US9302999B2, “Substituted triazoles as herbicides” (E. I. DU PONT DE NEMOURS AND COMPANY, priority 2012, dated 2016)

Legend:
Type in all cases: in vivo
[1] = test system: common (oilseed) sunflower (Helianthus annuus); experiment: Test C pre-/postemergence: sunflower; conditions: Preemergence
Outline: (§1)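 Preemergence on seeds in loam/sand, postemergence on 2–18 cm (1–4-leaf) plants in peat-based medium; compounds in non-phytotoxic solvent with surfactant. After 13–15 days in greenhouse, visual rating versus controls, 0 (no effect) to 100 (complete control).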

[2] = test system: bermudagrass (Cynodon dactylon); experiment: Test C pre-/postemergence: bermudagrass
Outline: as §1

[3] = test system: foxtail, green (green foxtail, Setaria viridis); experiment: Test C pre-/postemergence: foxtail, green
Outline: as §1

[4] = test system: windgrass (Apera spica-venti); experiment: Test C postemergence: windgrass
Outline: (§2)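 Visual 0–100 injury score vs untreated controls (0 none, 100 complete control), taken 13–15 d after treatment. Postemergence spray on potted plants, 2–18 cm, 1–4 leaves; greenhouse.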

[5] = test system: nightshade (eastern black nightshade, Solanum ptycanthum); experiment: Test C pre-/postemergence: nightshade; conditions: Preemergence
Outline: as §1

[6] = test system: barley (winter barley, Hordeum vulgare); experiment: Test C postemergence: barley
Outline: as §2

[7] = test system: cocklebur (common cocklebur, Xanthium strumarium); experiment: Test C pre-/postemergence: cocklebur
Outline: as §1

[8] = test system: deadnettle (henbit deadnettle, Lamium amplexicaule); experiment: Test C postemergence: deadnettle
Outline: as §2

[9] = test system: canarygrass (Phalaris minor); experiment: Test C postemergence: canarygrass
Outline: as §2

[10] = test system: goosegrass (Eleusine indica); experiment: Test C pre-/postemergence: goosegrass
Outline: as §1

[11] = test system: surinam grass (Brachiaria decumbens); experiment: Test C pre-/postemergence: surinam grass
Outline: as §1

[12] = 31 g ai/ha, scale of 0 to 100, 0 is no effect, 100 is complete control
[13] = 125 g ai/ha, scale 0 to 100, 0 no effect, 100 complete control
[14] = 250 g ai/ha, scale 0 to 100, 0 no effect, 100 complete control
[15] = Postemergence, 31 g ai/ha, scale 0 to 100 (0 no effect, 100 complete control)
[16] = Postemergence, 62 g ai/ha, scale 0 to 100 (0 no effect, 100 complete control)
[17] = Postemergence, 125 g ai/ha, scale 0 to 100, 0 no effect, 100 complete control
[18] = Postemergence, 250 g ai/ha, scale 0 to 100
[19] = Preemergence, 31 g ai/ha, scale of 0 to 100, 0 is no effect, 100 is complete control
[20] = Preemergence, 62 g ai/ha, scale 0 to 100, 0 no effect, 100 complete control
[21] = Preemergence, 125 g ai/ha, scale 0 to 100, 0 no effect, 100 complete control
[22] = Preemergence, 250 g ai/ha, scale 0 to 100, 0 no effect, 100 complete control
[23] = Preemergence, 62 g ai/ha, scale of 0 to 100, 0 is no effect, 100 is complete control
[24] = 31 g ai/ha, scale 0 to 100 (0 no effect, 100 complete control)
[25] = 62 g ai/ha, scale 0 to 100 (0 no effect, 100 complete control)
[26] = 62 g ai/ha, scale of 0 to 100, 0 is no effect, 100 is complete control

FC(F)Oc1nn(-c2ccc(C(F)(F)F)cc2)nc1Cc1ccnc(C(F)(F)F)c1 [Compound 26]
Plant response rating, Sunflower [1, 12]: 0
Plant response rating, Sunflower [1, 13]: 10
Plant response rating, Sunflower [1, 14]: 15
Plant response rating, Bermudagrass [2, 15]: 20
Plant response rating, Bermudagrass [2, 16]: 20
Plant response rating, Bermudagrass [2, 17]: 30
Plant response rating, Bermudagrass [2, 18]: 30
Plant response rating, Bermudagrass [2, 19]: 75
Plant response rating, Bermudagrass [2, 20]: 100
Plant response rating, Bermudagrass [2, 21]: 100
Plant response rating, Bermudagrass [2, 22]: 100
Plant response rating, Foxtail, Green [3, 15]: 30
Plant response rating, Foxtail, Green [3, 16]: 40
Plant response rating, Foxtail, Green [3, 17]: 70
Plant response rating, Foxtail, Green [3, 18]: 85
Plant response rating, Foxtail, Green [3, 19]: 85
Plant response rating, Foxtail, Green [3, 23]: 95
Plant response rating, Foxtail, Green [3, 21]: 95
Plant response rating, Foxtail, Green [3, 22]: 95
Plant response rating, Windgrass [4, 24]: 40
Plant response rating, Windgrass [4, 25]: 55
Plant response rating, Windgrass [4, 13]: 80
Plant response rating, Windgrass ([4]; 250 g ai/ha, scale 0 to 100): 80
Plant response rating, Nightshade [5, 12]: 55
Plant response rating, Nightshade [5, 26]: 90
Plant response rating, Nightshade [5, 13]: 98
Plant response rating, Nightshade [5, 14]: 98
Plant response rating, Barley [6, 24]: 20
Plant response rating, Barley [6, 25]: 30
Plant response rating, Barley [6, 13]: 30
Plant response rating, Barley ([6]; 250 g ai/ha, scale 0 to 100): 40
Plant response rating, Cocklebur [7, 15]: 10
Plant response rating, Cocklebur [7, 16]: 15
Plant response rating, Cocklebur [7, 17]: 55
Plant response rating, Cocklebur [7, 18]: 65
Plant response rating, Cocklebur [7, 19]: 0
Plant response rating, Cocklebur [7, 20]: 5
Plant response rating, Cocklebur [7, 21]: 15
Plant response rating, Cocklebur [7, 22]: 55
Plant response rating, Deadnettle [8, 24]: 98
Plant response rating, Deadnettle [8, 25]: 98
Plant response rating, Deadnettle [8, 13]: 98
Plant response rating, Deadnettle ([8]; 250 g ai/ha, scale 0 to 100): 100
Plant response rating, Canarygrass [9, 24]: 40
Plant response rating, Canarygrass [9, 25]: 45
Plant response rating, Canarygrass [9, 13]: 90
Plant response rating, Canarygrass ([9]; 250 g ai/ha, scale 0 to 100): 90
Plant response rating, Goosegrass [10, 15]: 25
Plant response rating, Goosegrass [10, 16]: 30
Plant response rating, Goosegrass [10, 17]: 40
Plant response rating, Goosegrass [10, 18]: 70
Plant response rating, Goosegrass [10, 19]: 95
Plant response rating, Goosegrass [10, 23]: 100
Plant response rating, Goosegrass [10, 21]: 100
Plant response rating, Goosegrass [10, 22]: 100
Plant response rating, Surinam Grass [11, 15]: 15
Plant response rating, Surinam Grass [11, 16]: 20
Plant response rating, Surinam Grass [11, 17]: 25
Plant response rating, Surinam Grass [11, 18]: 45
Plant response rating, Surinam Grass [11, 19]: 10
Plant response rating, Surinam Grass [11, 23]: 50
Plant response rating, Surinam Grass [11, 21]: 65
Plant response rating, Surinam Grass [11, 22]: 90

Cc1nn(-c2ccc(C(F)(F)F)cn2)nc1Cc1cccc(C(F)(F)F)c1 [Compound 106]
Plant response rating, Sunflower [1, 26]: 0
Plant response rating, Sunflower [1, 13]: 0
Plant response rating, Sunflower [1, 14]: 0
Plant response rating, Bermudagrass [2, 15]: 40
Plant response rating, Bermudagrass [2, 16]: 40
Plant response rating, Bermudagrass [2, 17]: 55
Plant response rating, Bermudagrass [2, 18]: 80
Plant response rating, Bermudagrass [2, 19]: 100
Plant response rating, Bermudagrass [2, 20]: 100
Plant response rating, Bermudagrass [2, 21]: 100
Plant response rating, Bermudagrass [2, 22]: 100
Plant response rating, Foxtail, Green [3, 15]: 50
Plant response rating, Foxtail, Green [3, 16]: 50
Plant response rating, Foxtail, Green [3, 17]: 70
Plant response rating, Foxtail, Green [3, 18]: 85
Plant response rating, Foxtail, Green [3, 19]: 90
Plant response rating, Foxtail, Green [3, 23]: 95
Plant response rating, Foxtail, Green [3, 21]: 95
Plant response rating, Foxtail, Green [3, 22]: 95
Plant response rating, Windgrass [4, 24]: 50
Plant response rating, Windgrass [4, 25]: 65
Plant response rating, Windgrass [4, 13]: 80
Plant response rating, Windgrass ([4]; 250 g ai/ha, scale 0 to 100): 85
Plant response rating, Nightshade [5, 12]: 0
Plant response rating, Nightshade [5, 26]: 75
Plant response rating, Nightshade [5, 13]: 90
Plant response rating, Nightshade [5, 14]: 100
Plant response rating, Barley [6, 24]: 15
Plant response rating, Barley [6, 25]: 25
Plant response rating, Barley [6, 13]: 35
Plant response rating, Barley ([6]; 250 g ai/ha, scale 0 to 100): 40
Plant response rating, Cocklebur [7, 15]: 35
Plant response rating, Cocklebur [7, 16]: 35
Plant response rating, Cocklebur [7, 17]: 40
Plant response rating, Cocklebur [7, 18]: 55
Plant response rating, Deadnettle [8, 24]: 75
Plant response rating, Deadnettle [8, 25]: 80
Plant response rating, Deadnettle [8, 13]: 90
Plant response rating, Deadnettle ([8]; 250 g ai/ha, scale 0 to 100): 90
Plant response rating, Canarygrass [9, 24]: 35
Plant response rating, Canarygrass [9, 25]: 50
Plant response rating, Canarygrass [9, 13]: 70
Plant response rating, Canarygrass ([9]; 250 g ai/ha, scale 0 to 100): 80
Plant response rating, Goosegrass [10, 15]: 10
Plant response rating, Goosegrass [10, 16]: 35
Plant response rating, Goosegrass [10, 17]: 45
Plant response rating, Goosegrass [10, 18]: 55
Plant response rating, Goosegrass [10, 19]: 80
Plant response rating, Goosegrass [10, 23]: 98
Plant response rating, Goosegrass [10, 21]: 98
Plant response rating, Goosegrass [10, 22]: 100
Plant response rating, Surinam Grass [11, 15]: 20
Plant response rating, Surinam Grass [11, 16]: 25
Plant response rating, Surinam Grass [11, 17]: 35
Plant response rating, Surinam Grass [11, 18]: 40
Plant response rating, Surinam Grass [11, 19]: 5
Plant response rating, Surinam Grass [11, 23]: 20
Plant response rating, Surinam Grass [11, 21]: 80
Plant response rating, Surinam Grass [11, 22]: 90
